# Reference: patent US6605601B2, “A1 adenosine receptor antagonists” (Biogen, Inc., priority 2000, dated 2003)
# Target: T1, rat A1 adenosine receptor (Rattus norvegicus, UniProt P25099)
# T1 construct: Membranes were prepared from rat cerebral cortex isolated from freshly euthanized rats; from tissue; host or cells: rat cerebral cortex
# T1 sequence (P25099 1-326): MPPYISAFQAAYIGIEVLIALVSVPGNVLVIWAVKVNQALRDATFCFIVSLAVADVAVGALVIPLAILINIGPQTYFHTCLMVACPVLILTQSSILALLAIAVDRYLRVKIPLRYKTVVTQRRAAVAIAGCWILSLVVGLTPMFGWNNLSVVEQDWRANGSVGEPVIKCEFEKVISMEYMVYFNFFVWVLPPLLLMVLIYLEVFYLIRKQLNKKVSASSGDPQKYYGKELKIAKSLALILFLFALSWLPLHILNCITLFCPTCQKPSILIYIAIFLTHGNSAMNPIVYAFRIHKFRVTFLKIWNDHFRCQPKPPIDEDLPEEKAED
# Experiment: Radioligand ([3H]DPCPX) competition binding assay on rat A1 adenosine receptor (rat cerebral cortex membranes)
# Settings: for % specific radioligand binding remaining at 1 µM: 2.5 h, % of total specific radioligand binding remaining at 1 μM of competing compound; for Ki: [3H]DPCPX 1 nM, Cheng-Prusoff from IC50
# Description: For some of these compounds, the Ki values for rat and human adenosine A1 receptors were determined according to the following binding assay protocol.
# Rat A1 Receptor: Membranes were prepared from rat cerebral cortex isolated from freshly euthanized rats. Tissues were homogenized in buffer A (10 mM EDTA, 10 mM Na-HEPES, pH 7.4) supplemented with protease inhibitors (10 μg/ml benzamidine, 100 μM PMSF, and 2 μg/ml each of aprotinin, pepstatin and leupeptin), and centrifuged at 20,000×g for 20 min. Pellets were resuspended and washed twice with buffer HE (10 mM Na-HEPES, 1 mM EDTA, pH 7.4, plus protease inhibitors). Final pellets were resuspended in buffer HE, supplemented with 10% (w/v) sucrose and protease inhibitors, and frozen in aliquots at −80° C. Protein concentrations were measured using BCA protein assay kit (Pierce).
# Membranes (50 μg membrane protein for rat A1ARs, and 25 μg of CHO-K1 membrane protein for human A1ARs), radioligands and varying concentrations of competing ligands were incubated in triplicates in 0.1 ml buffer HE plus 2 units/ml adenosine deaminase for 2.5 h at 21° C. Radioligand [^3H]DPCPX (112 Ci/mmol from NEN, final concentration: 1 nM) was used for competition binding assays on A1ARs. Nonspecific binding was measured in the presence of 10 μM BG9719. Binding assays were terminated by filtration over Whatman GF/C glass fiber filters using a BRANDEL cell harvester. Filters were rinsed three times with 3-4 ml ice-cold 10 mM Tris-HCl, pH 7.4 and 5 mM MgCl2 at 4° C. Filter paper was transferred to a vial, and 3 ml of scintillation cocktail ScintiVerseII (Fisher)was added. Radioactivity was counted in a Wallac β-counter.
# For K1 Determinations: Competition binding data were fit to a single-site binding model and plotted using Prizm GraphPad.
# For % Binding: For one-point binding assays, data were presented as % of total specific binding at 1 μM of competing compound: % of total =100* (Specific binding with 1 μM of competing compound/total specific binding). % binding represents the amount of bound radioligand remaining in the presence of 1 μM of competing antagonist.
Compound,% specific radioligand binding remaining at 1 µM,Ki
CCCN1C(=O)N2CCCN=C2c2[nH]c(C34CCC(C(=O)O)(CC3)CC4)nc21 [Compound 29],81.8%,
CCCN1C(=O)N2CCCCN=C2c2[nH]c(C34CCC(O)(CC3)CC4)nc21 [Compound 27],16.3%,
CCCN1C(=O)N2C[C@@H](C)N=C2c2[nH]c(C34CCC(C(=O)O)(CC3)CC4)nc21 [Compound 22],24%,
CCC[C@@H]1CN2C(=O)N(CCC)c3nc(C45CCC(C(=O)O)(CC4)CC5)[nH]c3C2=N1 [Compound 23],22.8%,
CCCN1C(=O)N2C(=NC[C@@H]2C)c2[nH]c(C34CCC(O)(CC3)CC4)nc21 [Compound 12],8.6%,51.3 nM
CCCN1C(=O)N2C[C@@H](C(C)(C)C)N=C2c2[nH]c(C34CCC(O)(CC3)CC4)nc21 [Compound 16],,155 nM
"CCCN1C(=O)N2CCN=C2c2[nH]c(C34CCC(C(=O)O)(CC3)CC4)nc21 [Compound 6, 4-(5-Oxo-4-propyl-4,5,6,7-tetrahydro-1H-1,3,4,5a,8-pentaaza-as-indacen-2-yl)-bicyclo[2.2.2]octane-l-carboxylic acid]",2.6%,
CCC[C@@H]1CN2C(=O)N(CCC)c3nc(C45CCC(O)(CC4)CC5)[nH]c3C2=N1 [Compound 11],3.7%,43.2 nM
CCCN1C(=O)N2CCCCN=C2c2[nH]c(C34CCC(C(=O)O)(CC3)CC4)nc21 [Compound 30],71%,
"CCCN1C(=O)N2C[C@@H](C(C)C)N=C2c2[nH]c(C34CCC(O)(CC3)CC4)nc21 [Compound 1, 2-(4-Hydroxy-bicyclo[2.2.2]oct-1-yl)-7-isopropyl-4-propyl-1,4,6,7-tetrahydro-1,3,4,5a,8-pentaaza-as-indacen-5-one]",,4.4 nM
CCCC[C@@H]1CN2C(=O)N(CCC)c3nc(C45CCC(O)(CC4)CC5)[nH]c3C2=N1 [Compound 19],18.1%,
CCCN1C(=O)N2C(=NC[C@H]2C)c2[nH]c(C34CCC(O)(CC3)CC4)nc21 [Compound 14],7.8%,68.5 nM
CCCN1C(=O)N2C[C@@H](C(C)C)N=C2c2[nH]c(C34CCC(C(=O)O)(CC3)CC4)nc21 [Compound 25],46.7%,
"CCCN1C(=O)N2C[C@@H](CC)N=C2c2[nH]c(C34CCC(O)(CC3)CC4)nc21 [Compound 2, 7-Ethyl-2-(4-hydroxy-bicyclo[2.2.2]oct-1-yl)-4-propyl-1,4,6,7-tetrahydro-1,3,4,5a,8-pentaaza-as-indacen-5-one]",,5.75 nM
CCCN1C(=O)N2CCCN=C2c2[nH]c(C34CCC(O)(CC3)CC4)nc21 [Compound 20],52.7%,
CCCN1C(=O)N2C[C@@H](CC)N=C2c2[nH]c(C34CCC(CC3)CC4)nc21 [Compound 9],0.1%,26.7 nM

Compound,% specific radioligand binding remaining at 1 µM,Ki
CCCN1C(=O)N2C[C@@H](C(C)CC)N=C2c2[nH]c(C34CCC(O)(CC3)CC4)nc21 (stereo partly shown) [Compound 8],1%,14.1 nM
CCCN1C(=O)N2C[C@H](CC)N=C2c2[nH]c(C34CCC(O)(CC3)CC4)nc21 [Compound 24],11%,
CCCN1C(=O)N2C[C@@H](Cc3ccc(O)cc3)N=C2c2[nH]c(C34CCC(O)(CC3)CC4)nc21 [Compound 28],36.3%,
"CCCN1C(=O)N2C[C@@H](CC)N=C2c2[nH]c(C34CCC(CCC(=O)O)(CC3)CC4)nc21 [Compound 3, 3-[4-(7-Ethyl-5-oxo-4-propyl-4,5,6,7-tetrahydro-1H-1,3,4,5a,8-pentaaza-as-indacen-2-yl)-bicyclo[2.2.2]oct-1-yl]-propionic acid]",,8.38 nM
CCCN1C(=O)N2C[C@H](C(C)CC)N=C2c2[nH]c(C34CCC(O)(CC3)CC4)nc21 (stereo partly shown) [Compound 15],7.7%,93 nM
"CCCN1C(=O)N2C[C@@H](C(C)C)N=C2c2[nH]c(C34CCC(CCC(=O)O)(CC3)CC4)nc21 [Compound 5, 3-[4-(7-Isopropyl-5-oxo-4-propyl-4,5,6,7-tetrahydro-1H-1,3,4,5a,8-pentaaza-as-indacen-2-yl)-bicyclo[2.2.2]oct-1-yl]-propionic acid]",1.9%,10.5 nM
CCCN1C(=O)N2C[C@@H](CC)N=C2c2[nH]c(C34CCC(C(=O)O)(CC3)CC4)nc21 [Compound 10],6.2%,40.2 nM
CCCN1C(=O)N2C[C@H](CC)N=C2c2[nH]c(C34CCC(C(=O)O)(CC3)CC4)nc21 [Compound 26],41.1%,
CCCN1C(=O)N2C[C@@H](CC(C)C)N=C2c2[nH]c(C34CCC(O)(CC3)CC4)nc21 [Compound 17],,167 nM
CCCN1C(=O)N2C[C@@H](C)N=C2c2[nH]c(C34CCC(CCC(=O)O)(CC3)CC4)nc21 [Compound 7],2.5%,13.7 nM
CCCN1C(=O)N2C[C@@H](c3ccccc3)N=C2c2[nH]c(C34CCC(O)(CC3)CC4)nc21 [Compound 13],,68.3 nM
CCCN1C(=O)N2C[C@@H](Cc3ccccc3)N=C2c2[nH]c(C34CCC(O)(CC3)CC4)nc21 [Compound 18],,708 nM
"CCCN1C(=O)N2C[C@@H](C)N=C2c2[nH]c(C34CCC(O)(CC3)CC4)nc21 [Compound 4, 2-(4-Hydroxy-bicyclo[2.2.2]oct-1-yl)-7-methyl-4-propyl-1,4,6,7-tetrahydro-1,3,4,5a,8-pentaaza-as-indacen-5-one]",,9.92 nM
CCCN1C(=O)N2CC[C@@H](C)N=C2c2[nH]c(C34CCC(O)(CC3)CC4)nc21 [Compound 31],40%,
CCCN1C(=O)N2CCN=C2c2[nH]c(C34CCC(O)(CC3)CC4)nc21 [Compound 21],12.2%,
